Assay results published in patent publication US20170073337A1, “DIHYDROTHIAZINE AND DIHYDROOXAZINE DERIVATIVES HAVING BACE1 INHIBITORY ACTIVITY” (Shionogi & Co., Ltd., priority 2014, published 2017).
Values after ≈ are worked out from the molar mass of the structure shown. Read-outs that look alike come from different tables or passages of the source.

Legend:
[1] = system: Aβ production in neuroblastoma SH-SY5Y cells (SH/APPwt); experiment: β-amyloid (Aβ) production inhibitory effect in cell: 384-well; format: cell-based; conditions: Homo sapiens, Assay format 384-well
Experimental: Neuroblastoma SH-SY5Y cells (SH/APPwt) with human wild-type β-APT excessively expressed therein were prepared at 4×10^5 cells/mL, and 50 μl portions thereof were inoculated into each well of a 384-well culture plate (Corning) added 0.5 μl of the test compound of the present invention (DMSO solution). The final DMSO concentration was 1%, and the amount of the cell culture was 50 μl. After the incubation was performed for 21 hours from the cell seeding, 5 μl of the culture supernatant was collected from each fraction. The amount of the Aβ in each fraction was measured.
The Aβ amount was measured as follows. 5 μl of a homogeneous time resolved fluoresrenee (HTRF) measurement reagent (Amyloid β1-40 peptide; CIS bio international) and 5 μl of the culture supernatant were put into a 384′well plate (a black plate: Corning) and mixed with each other, and then left standing overnight at 4° C. while the light was shielded. Then, the fluorescence intensity (620 nm and 665 nm) was measured with EnViston (Perkin Elmer life sciences).

Metabolic stability test = format: in vitro ADME; conditions: human liver microsomes, 37° C., 30 minutes, NADPH
Experimental: Using a commercially available pooled human liver microsomes, a compound of the present invention was reacted for a constant time, a remaining rate was calculated by comparing a reacted sample and an unreacted sample, thereby, a degree of metabolism in liver was assessed.
A reaction was performed (oxidative reaction) at 37° C. for 0 minute or 30 minutes in the presence of 1 mmol/L NADPH in 0.2 mL of a buffer (60 mmol/L Tris-HCl pH 7.4, 150 mmol/L potassium chloride, 10 mmol/L magnesium chloride) containing 0.5 mg protein/mL of human liver microsomes. After the reaction, 50 μL of the reaction solution was added to 100 μL of a methanol/acetonltrile=1/1 (v/v), mixed and centrifuged at 3000 rpm for 15 minutes. The compound of the present invention in the supernatant was quantified by LC/MS/MS or solid phase extraction (SPE)/MS, and a remaining amount of the compound of the present invention after the reaction area calculated, letting a compound amount at 0 minute reaction time to be 100%.

Recombinant human BACE1 = target: T1, Recombinant human BACE1 (Homo sapiens, UniProt P56817); experiment: Assay of BACE1 inhibitory activity: 384-well; format: biochemical; conditions: Assay format 384-well
T1 construct: purchased R&D Systems
Experimental: 5 μL of substrate peptide solution (Biotin-XSEVNLDAEFRHDSGC-Eu: X=ε-amino-n-capronic acid, Eu=Europium eryplate) was added to each well of 384-well plate (a black plate: Corning), and after addition of 0.1 μl of the compound of the present invention (DMSO solution) and 5 μl of Recombinant human BACE1 (R&D Systems), the reaction mixture was incubated at 25° C. for 2 hours. The substrate peptide was synthesized by reacting Cryptate TBPCOOH mono SMP (CIS bio international) with Biotin-XSEVNLDAEFRHDSGC (Peptide Institute, Inc.).
After the incubation for reaction, 10 μl of 8.0 μg/ml Streptavidin-XL665 (CIS bio International) dissolved in phosphate buffer (150 mmol/L K2HPO4-KH2PO4, pH 7.0, 0.008% Triton X-100, 0.8 mol/L KF) was added to each well and left stand at 25° C. for 30 minutes.

Solubility test = format: physicochemical; conditions: for solubility kinetic at 1 h: kinetic from dmso stock; for solubility kinetic at 16 h: solubility in JP 2nd fluid B, 1% DMSO, *2: shaken for 1 hour at room temperature
Experimental: A 10 mmol/L solution of the compound was prepared with DMSO, and 2 μL of the compound of the present invention solution was added, respectively, to 198 μL of JP 1st fluid (water was added to 2.0 g of sodium chloride and 7.0 ml, of hydrochloric acid to reach 1000 mL) and JP 2nd fluid (See Table 4). The mixture was left standing for 16 hours at 25° C. or shaken for 1 hour at ruom temperature, and the mixture was vacuum-filtered. The […] was ten or one hundred-fold diluted with metbanol/water=1/1 (v/v) or MeCN/MeOH/H2O(=1/1/2), and the compound concent ration in the filtrate was measured with LC/MS or solid phase extraction (SPE)/MS by the absolute calibration method.

[2] = target: T2, human ether-a-go-go related gene (hERG) channel (Homo sapiens, UniProt Q12809); experiment: hERG test; format: cell-based; conditions: % inhibition of IKr tail peak current at 3 uM; CHO cells expressing hERG
T2 construct: expressed in transfected cells; host or cells: CHO cells
Text: For the purpose of assessing risk of an electrocardiogram QT interval prolongation, effects on delayed rectifier K+ current (IKr), which plays an important role in the ventricular repolarization process of the compound of the present invention, was studied using CHO cells expressing human ether-a-go-go related gene (hERG) channel.
A cell was retained at a membrane potential of […] by whole cell patch clamp method using an automated patch clamp system (QPatch:Sophion Bioscience A/S). After application of leak potential at −50 mV, IKr induced by depolarization pulse stimulation at +20 mV for 2 seconds and, further, repolarization pulse stimulation at −50 mV for 2 seconds was recorded.

[3] = target: T3, P-gp (MDR1 expressing LLC-PK1 cells) (Homo sapiens, UniProt P08183); experiment: P-gp substrate test; format: in vitro ADME; conditions: net flux = Efflux Ratio in MDR1 expressing cells / Efflux Ratio in parent LLC-PK1 cells
T3 construct: host or cells: LLC-PK1
Experimental: • 1. Cell line: • a. MDR/LLC-PK1 (Becton Dickinson) • b. LLC-PK1 (Becton Dickinson) • 2. Reference substrates: • a Digoxin (2 μM)
1. […] After incubation for designed time at 37° C., an aliquot (50 μL) of transport buffer in the donor and receiver side were collected. Assay was performed by duplicate or triplicate. 3. Reference substrate and the present invention in the aliquot was quantified by LC/MS/MS.
Pc(cm/sec)−Permeated amount (pmol)/area of cell membrane (cm2)/initial concentration (nM)/incubation time (sec)
The efflux ratio was calculated using the following equation:
Efflux Ratio=Basolateral-to-Apical Pe/Apical-to-Basolateral Pe
The net flux was calculated using the following equation
Net flux=Efflux Ratio in MDK1 expressing cells/Efflux Ratio in parent cells

CYP2C9 = target: T4, CYP2C9 (Homo sapiens, UniProt P11712); experiment: CYP inhibition test (CYP2C9); format: in vitro ADME; conditions: pooled human liver microsomes; tolbutamide methyl-hydroxylation
T4 construct: The commercially available pooled human liver microsomes are used as an enzyme resource; from tissue; host or cells: pooled human liver microsomes
Text: (§1) The CYP inhibition test is a test to assess the inhibitory effect of a compound of the present invention towards typical substrate metabolism reactions on CYP enzymes in human liver microsomes. The marker reactions on human main five CYP enzymes (CYP1A2, 2C9, 2C19, 2D6, and 3A4) are used as follows: 7-ethoxyresorufin O-deethylation (CYP1A2), tolbutamide methyl-hydroxylation (CYP2C9), mephenytoin 4′-hydroxylation (CYP2C19), dextromethorphan O-demethylation (CYP2D6), and terfenadine hydroxylation (CYP3A4). The commercially available pooled human liver microsomes are used as an enzyme resource.
(§2) The reaction conditions were as follows: substrate, 0.5 μmol/L ethoxyresorufin (CYP1A2), 100 μmol/L tolbutamide (CYP2C9), 50 μmol/L, S-mephenytoin (CYP2C19), 5 μmol/L dextromethorphan (CYP2D6), 1 μmol/L terfenadine (CYP3A4): reaction time, 15 minutes: reaction temperature, 37° C.; enzyme, pooled human liver microsomes 0.2 mg protein/mL; concentrations of the compound of the present invention, 1, 5, 10, 20 μmol/L (four points).
(§3) Five kinds of substrates, human liver microsomes, and a compound solution of the present invention in […] Hepes buffer were added to a 96-well plate at the composition as described above as a reaction solution. NADPH as a cofactor was added to this 96-well plate in order to initiate metabolism reactions. After the incubation at 37° C.for […], a methanol/acetonitrile=1/1 (v/v) solution was added to stop the reaction. After the centrifugation at 3000 rpm for 15 minutes, resorufin (CYP1A2 metabolite) in the supernatant was quantified by a fluorescent plate reader, and hydroxytolbutamide (CYP2C9 metabolite), 4′-hydroxymephenytoin (CYP2C19 metabolite), dextrorphan (CYP2D6 metabolite), and terfenadine alcohol metabolite (CYP3A4 metabolite) in the supernatant were quantified by LC/MS/MS.
(§4) The sample adding DMSO to a reaction system instead of compound of the present invention solution was adopted as a control (100%) because DMSO was used as a solvent to dissolve a compound of the present invention. Remaining activity (%) was calculated at each concentration of a compound of the present invention, and IC50 value was calculated by reverse presumption by a logistic model using a concentration and an inhibition rate.

CYP3A4 = target: T5, CYP3A4 (Homo sapiens, UniProt P08684); experiment: CYP inhibition test (CYP3A4); format: in vitro ADME; conditions: pooled human liver microsomes; terfenadine hydroxylation
T5 construct: The commercially available pooled human liver microsomes are used as an enzyme resource; from tissue; host or cells: pooled human liver microsomes
Text: as §1, §2, §3, §4

CYP2C19 = target: T6, CYP2C19 (Homo sapiens, UniProt P33261); experiment: CYP inhibition test (CYP2C19); format: in vitro ADME; conditions: pooled human liver microsomes; mephenytoin 4′-hydroxylation
T6 construct: The commercially available pooled human liver microsomes are used as an enzyme resource; from tissue; host or cells: pooled human liver microsomes
Text: as §1, §2, §3, §4

CYP1A2 = target: T7, CYP1A2 (Homo sapiens, UniProt P05177); experiment: CYP inhibition test (CYP1A2); format: in vitro ADME; conditions: pooled human liver microsomes; 7-ethoxyresorufin O-deethylation
T7 construct: The commercially available pooled human liver microsomes are used as an enzyme resource; from tissue; host or cells: pooled human liver microsomes
T7 sequence (P05177 1-516): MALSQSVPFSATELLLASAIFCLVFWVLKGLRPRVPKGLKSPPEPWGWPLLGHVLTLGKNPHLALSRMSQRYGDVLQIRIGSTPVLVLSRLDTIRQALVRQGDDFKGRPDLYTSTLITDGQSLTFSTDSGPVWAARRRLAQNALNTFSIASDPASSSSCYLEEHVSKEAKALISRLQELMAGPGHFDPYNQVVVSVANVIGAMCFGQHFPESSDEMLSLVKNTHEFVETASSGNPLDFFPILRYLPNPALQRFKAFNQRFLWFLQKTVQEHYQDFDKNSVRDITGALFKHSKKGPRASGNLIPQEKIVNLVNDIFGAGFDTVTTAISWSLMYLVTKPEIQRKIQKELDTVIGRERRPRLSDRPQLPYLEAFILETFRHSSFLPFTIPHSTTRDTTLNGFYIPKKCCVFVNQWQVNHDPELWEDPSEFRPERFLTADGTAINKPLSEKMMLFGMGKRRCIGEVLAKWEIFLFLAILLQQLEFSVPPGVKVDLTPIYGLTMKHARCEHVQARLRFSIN
Text: as §1, §2, §3, §4

CYP2D6 = target: T8, CYP2D6 (Homo sapiens, UniProt P10635); experiment: CYP inhibition test (CYP2D6); format: in vitro ADME; conditions: pooled human liver microsomes; dextromethorphan O-demethylation
T8 construct: The commercially available pooled human liver microsomes are used as an enzyme resource; from tissue; host or cells: pooled human liver microsomes
Text: as §1, §2, §3, §4

[4] = JP 1st fluid, pH 1.2, simulated gastric fluid, read-out: JP1

T5 sequence (P08684 whole entry): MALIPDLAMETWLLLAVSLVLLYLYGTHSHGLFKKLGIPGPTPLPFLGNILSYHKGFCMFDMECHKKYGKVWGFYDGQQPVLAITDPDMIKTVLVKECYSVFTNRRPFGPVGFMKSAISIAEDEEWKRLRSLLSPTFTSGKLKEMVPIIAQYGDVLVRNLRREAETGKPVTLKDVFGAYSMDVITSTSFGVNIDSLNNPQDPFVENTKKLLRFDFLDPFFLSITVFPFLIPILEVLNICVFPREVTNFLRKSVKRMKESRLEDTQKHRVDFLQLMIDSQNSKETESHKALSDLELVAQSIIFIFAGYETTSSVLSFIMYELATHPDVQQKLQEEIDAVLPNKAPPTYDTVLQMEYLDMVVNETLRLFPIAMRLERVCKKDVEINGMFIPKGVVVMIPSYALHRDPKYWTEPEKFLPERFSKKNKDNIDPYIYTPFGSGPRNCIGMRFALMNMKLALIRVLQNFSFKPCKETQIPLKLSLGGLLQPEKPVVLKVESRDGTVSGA
T3 sequence (P08183 whole entry): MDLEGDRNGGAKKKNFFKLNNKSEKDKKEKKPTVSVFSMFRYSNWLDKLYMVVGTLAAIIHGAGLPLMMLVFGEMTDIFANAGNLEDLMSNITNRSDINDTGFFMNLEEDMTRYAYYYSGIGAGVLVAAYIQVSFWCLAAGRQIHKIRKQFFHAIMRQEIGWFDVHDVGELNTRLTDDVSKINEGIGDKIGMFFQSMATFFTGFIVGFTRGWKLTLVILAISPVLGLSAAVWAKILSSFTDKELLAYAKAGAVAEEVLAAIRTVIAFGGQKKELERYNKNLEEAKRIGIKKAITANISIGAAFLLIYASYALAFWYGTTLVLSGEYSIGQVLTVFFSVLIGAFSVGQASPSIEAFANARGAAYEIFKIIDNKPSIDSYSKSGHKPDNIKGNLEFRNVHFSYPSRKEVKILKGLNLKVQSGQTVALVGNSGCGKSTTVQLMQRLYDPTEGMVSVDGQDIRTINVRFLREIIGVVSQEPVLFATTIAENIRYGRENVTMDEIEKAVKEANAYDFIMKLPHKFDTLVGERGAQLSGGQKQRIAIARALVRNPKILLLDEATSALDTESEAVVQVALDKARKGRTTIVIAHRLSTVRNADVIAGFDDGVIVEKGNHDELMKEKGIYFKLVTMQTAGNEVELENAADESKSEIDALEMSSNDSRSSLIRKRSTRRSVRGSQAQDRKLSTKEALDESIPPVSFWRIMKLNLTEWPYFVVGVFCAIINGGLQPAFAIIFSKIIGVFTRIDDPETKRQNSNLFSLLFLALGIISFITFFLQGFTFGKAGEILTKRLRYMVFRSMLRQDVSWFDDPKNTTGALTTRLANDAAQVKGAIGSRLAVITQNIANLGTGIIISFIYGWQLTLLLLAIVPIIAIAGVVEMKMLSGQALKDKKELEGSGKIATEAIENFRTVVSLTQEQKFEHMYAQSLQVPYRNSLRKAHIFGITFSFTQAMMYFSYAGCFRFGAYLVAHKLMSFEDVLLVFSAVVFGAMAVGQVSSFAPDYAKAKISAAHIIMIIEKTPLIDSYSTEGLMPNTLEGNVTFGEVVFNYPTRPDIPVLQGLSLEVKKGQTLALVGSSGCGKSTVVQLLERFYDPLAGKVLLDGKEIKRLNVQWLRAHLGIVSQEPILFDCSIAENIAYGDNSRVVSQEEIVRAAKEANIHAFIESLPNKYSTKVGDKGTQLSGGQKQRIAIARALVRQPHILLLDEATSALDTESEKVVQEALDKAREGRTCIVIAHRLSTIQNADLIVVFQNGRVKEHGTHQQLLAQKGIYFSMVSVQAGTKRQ
T4 sequence (P11712 whole entry): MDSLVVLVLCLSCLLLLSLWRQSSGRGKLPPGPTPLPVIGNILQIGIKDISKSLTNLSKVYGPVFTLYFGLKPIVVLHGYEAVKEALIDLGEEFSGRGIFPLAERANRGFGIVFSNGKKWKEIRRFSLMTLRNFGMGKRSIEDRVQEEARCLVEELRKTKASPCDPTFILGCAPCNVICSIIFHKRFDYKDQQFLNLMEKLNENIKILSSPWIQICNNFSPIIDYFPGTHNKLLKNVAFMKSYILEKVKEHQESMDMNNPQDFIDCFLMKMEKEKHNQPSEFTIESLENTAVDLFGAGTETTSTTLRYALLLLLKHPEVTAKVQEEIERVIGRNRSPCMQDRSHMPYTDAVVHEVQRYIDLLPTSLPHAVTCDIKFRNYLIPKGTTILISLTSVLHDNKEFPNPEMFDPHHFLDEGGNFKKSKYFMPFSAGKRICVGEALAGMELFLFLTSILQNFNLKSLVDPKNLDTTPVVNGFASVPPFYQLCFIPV
T1 sequence (P56817 46-501): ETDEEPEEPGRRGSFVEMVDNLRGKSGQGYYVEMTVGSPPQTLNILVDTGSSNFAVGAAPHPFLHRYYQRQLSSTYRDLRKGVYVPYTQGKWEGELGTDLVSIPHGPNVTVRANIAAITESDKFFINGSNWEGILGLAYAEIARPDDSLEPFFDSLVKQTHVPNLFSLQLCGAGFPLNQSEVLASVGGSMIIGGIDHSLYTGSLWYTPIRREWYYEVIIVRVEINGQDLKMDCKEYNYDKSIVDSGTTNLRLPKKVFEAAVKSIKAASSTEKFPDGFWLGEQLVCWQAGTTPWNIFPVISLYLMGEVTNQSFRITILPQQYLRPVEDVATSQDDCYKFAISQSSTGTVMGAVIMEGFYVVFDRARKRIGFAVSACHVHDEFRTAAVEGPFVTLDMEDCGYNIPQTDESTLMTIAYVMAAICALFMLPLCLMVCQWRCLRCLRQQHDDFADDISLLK
T6 sequence (P33261 whole entry): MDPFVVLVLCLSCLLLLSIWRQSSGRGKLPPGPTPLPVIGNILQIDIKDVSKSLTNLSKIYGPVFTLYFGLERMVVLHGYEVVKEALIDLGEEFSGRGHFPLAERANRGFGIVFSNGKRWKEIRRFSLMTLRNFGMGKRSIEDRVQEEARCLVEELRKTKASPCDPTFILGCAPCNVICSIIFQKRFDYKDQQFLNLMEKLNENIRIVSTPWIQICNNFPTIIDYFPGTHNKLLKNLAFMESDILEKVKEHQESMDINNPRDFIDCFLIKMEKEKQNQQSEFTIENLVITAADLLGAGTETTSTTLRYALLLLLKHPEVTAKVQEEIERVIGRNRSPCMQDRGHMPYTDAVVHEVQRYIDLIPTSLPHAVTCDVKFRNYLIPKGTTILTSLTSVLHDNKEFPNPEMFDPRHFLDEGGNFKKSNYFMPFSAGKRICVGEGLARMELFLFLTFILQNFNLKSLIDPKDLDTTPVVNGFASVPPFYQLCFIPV
T8 sequence (P10635 whole entry): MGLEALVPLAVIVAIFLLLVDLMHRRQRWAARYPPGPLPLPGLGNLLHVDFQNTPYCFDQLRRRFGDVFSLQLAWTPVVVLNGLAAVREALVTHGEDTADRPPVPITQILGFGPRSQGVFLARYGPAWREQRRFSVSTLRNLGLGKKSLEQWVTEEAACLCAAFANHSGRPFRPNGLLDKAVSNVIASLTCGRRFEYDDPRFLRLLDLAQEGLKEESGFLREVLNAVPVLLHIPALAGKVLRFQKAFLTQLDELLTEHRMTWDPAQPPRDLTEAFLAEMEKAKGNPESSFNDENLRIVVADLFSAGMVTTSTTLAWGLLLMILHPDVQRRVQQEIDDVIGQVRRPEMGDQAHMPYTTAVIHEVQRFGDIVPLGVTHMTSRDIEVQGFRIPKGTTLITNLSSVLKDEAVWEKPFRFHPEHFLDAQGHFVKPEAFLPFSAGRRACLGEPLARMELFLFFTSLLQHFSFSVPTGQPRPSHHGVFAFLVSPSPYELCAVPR
T2 sequence (Q12809 whole entry): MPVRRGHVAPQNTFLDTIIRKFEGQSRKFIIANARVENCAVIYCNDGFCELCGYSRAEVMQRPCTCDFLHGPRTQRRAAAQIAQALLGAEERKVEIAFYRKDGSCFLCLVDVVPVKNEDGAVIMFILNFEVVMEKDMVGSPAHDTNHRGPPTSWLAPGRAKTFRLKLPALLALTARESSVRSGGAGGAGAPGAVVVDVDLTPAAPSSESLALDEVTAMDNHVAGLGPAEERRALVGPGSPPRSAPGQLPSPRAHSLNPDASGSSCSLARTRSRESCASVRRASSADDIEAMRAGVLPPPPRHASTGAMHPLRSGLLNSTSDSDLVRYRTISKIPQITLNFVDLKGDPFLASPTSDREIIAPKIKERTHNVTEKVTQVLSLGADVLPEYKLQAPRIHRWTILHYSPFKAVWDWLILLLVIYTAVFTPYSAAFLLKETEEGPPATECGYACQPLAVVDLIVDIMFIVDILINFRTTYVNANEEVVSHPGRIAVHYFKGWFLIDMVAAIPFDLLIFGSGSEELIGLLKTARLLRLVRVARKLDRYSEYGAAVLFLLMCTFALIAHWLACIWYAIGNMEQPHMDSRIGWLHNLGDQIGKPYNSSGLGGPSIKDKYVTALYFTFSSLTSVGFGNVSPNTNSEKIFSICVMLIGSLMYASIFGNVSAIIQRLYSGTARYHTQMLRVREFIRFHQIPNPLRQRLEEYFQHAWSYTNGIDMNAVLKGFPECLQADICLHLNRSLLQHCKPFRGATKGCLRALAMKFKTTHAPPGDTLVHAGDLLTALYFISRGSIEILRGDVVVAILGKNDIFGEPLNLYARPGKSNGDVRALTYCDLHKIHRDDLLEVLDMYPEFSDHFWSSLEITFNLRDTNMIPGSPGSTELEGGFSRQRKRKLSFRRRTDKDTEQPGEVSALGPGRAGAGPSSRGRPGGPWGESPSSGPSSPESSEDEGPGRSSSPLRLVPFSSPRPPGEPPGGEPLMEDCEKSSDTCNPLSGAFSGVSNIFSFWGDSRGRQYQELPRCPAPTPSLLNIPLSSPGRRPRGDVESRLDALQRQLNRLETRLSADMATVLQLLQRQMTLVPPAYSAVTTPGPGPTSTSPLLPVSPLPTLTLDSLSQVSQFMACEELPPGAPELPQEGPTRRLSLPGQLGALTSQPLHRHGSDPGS

Compound | IC50 [1] | remaining % (Metabolic stability test) | IC50 (Recombinant human BACE1) | solubility kinetic at 1 h (Solubility test; [4]) | solubility kinetic at 1 h (Solubility test; JP 2nd fluid B, pH 6.8, aqueous buffer, read-out: JP2_μM) | ER ratio (Cell: MDR1/LLC-PK1) [3] | IC50 (CYP2C9) | IC50 (CYP3A4) | solubility kinetic at 16 h (Solubility test; read-out: JP2_μM) | IC50 (CYP2C19) | IC50 (CYP1A2) | IC50 (CYP2D6) | hERG_3 uM_% [2]
C[C@H]1SC(N)=N[C@](C)(c2cc(NC(=O)c3ccc(OCC(F)(F)F)cn3)ccc2F)[C@H]1F [Compound I-54] | 7.2 nM | 91% | 13 nM | > 50 µM | 38.6 µM (≈ 18.3 µg/mL) | 1.9 | – | – | – | – | – | – | 37.7%
COc1ccc(C(=O)Nc2ccc(F)c([C@@]3(C)N=C(N)SCC34CC(F)(F)C4)c2)nc1 [Compound I-57] | 0.68 nM | – | 16.1 nM | > 50 µM | – | 0.6 | ≥ 20000 nM | ≥ 10000 nM | >50 µM | ≥ 20000 nM | ≥ 20000 nM | – | –
Cc1cc(C#N)cnc1C(=O)Nc1ccc(F)c([C@@]2(C)N=C(N)SCC23CC(F)(F)C3)c1 [Compound I-60] | 0.29 nM | – | 6.62 nM | > 50 µM | – | 1.4 | ≥ 20000 nM | – | >50 µM | ≥ 20000 nM | ≥ 20000 nM | – | –
COCC(F)(F)[C@H]1OC(N)=N[C@](C)(c2cc(NC(=O)c3ccc(C#N)cn3)ccc2F)[C@H]1F [Compound I-78] | 6.7 nM | – | 7.35 nM | > 50 µM | – | – | ≥ 20000 nM | ≥ 10000 nM | >50 µM | ≥ 20000 nM | ≥ 20000 nM | ≥ 10000 nM | 39.6%

Further molecules by falling IC50 [1], results first:

IC50 [1] | remaining % (Metabolic stability test) | IC50 (Recombinant human BACE1) | solubility kinetic at 1 h (Solubility test; [4]) | solubility kinetic at 1 h (Solubility test; JP 2nd fluid B, pH 6.8, aqueous buffer, read-out: JP2_μM) | ER ratio (Cell: MDR1/LLC-PK1) [3] | IC50 (CYP2C9) | IC50 (CYP3A4) | solubility kinetic at 16 h (Solubility test; read-out: JP2_μM) | IC50 (CYP2C19) | IC50 (CYP1A2) | IC50 (CYP2D6) | Compound | hERG_3 uM_% [2]
7.2 nM | 78.9% | 34.3 nM | > 50 µM | – | – | ≥ 20000 nM | ≥ 20000 nM | >50.0 µM | ≥ 20000 nM | ≥ 10000 nM | ≥ 20000 nM | C[C@H]1SC(N)=N[C@](C)(c2cccc(NC(=O)c3ccc(F)cn3)c2)[C@H]1F [Compound I-115] | –
5.1 nM | 80.5% | 41.5 nM | > 50 µM | – | – | ≥ 10000 nM | ≥ 20000 nM | >50.0 µM | ≥ 20000 nM | ≥ 20000 nM | ≥ 20000 nM | [2H]C([2H])([2H])Oc1cnc(C(=O)Nc2cccc([C@@]3(C)N=C(N)S[C@H](C)[C@@H]3F)c2)cn1 [Compound I-114] | –
